Experimental data taken from patent US20190269666A1, “COMBINATION THERAPY WITH MERESTINIB AND ANTI-PD-L1 OR ANTI-PD-1 INHIBITORS FOR USE IN THE TREATMENT OF CANCER” (Eli Lilly and Company, priority 2016, published 2019).

Key:
CT26 cells = assay: CT26 cell proliferation; format: cell-based; details: Mus musculus, in vitro
Protocol: CT26 CRC tumor cells harbor KRAS activating mutation G12D. […] CT26 cells also express high level of phospho-AXL (p-AXL) by western blot analysis and merestinib is shown to decrease p-AXL in vitro by more than 60% at a concentration of 500 nM in the mouse phospho-RTK array, but show very little effect on CT26 cell proliferation (IC50>20 μM).

[1] = test system: CT26 colorectal cancer model; assay: Study S082015: single agent merestinib in CT26 syngeneic mouse tumor model; format: in vivo; details: for Body weight change from baseline (%) / T/C %: Day 26
Protocol: A syngeneic mouse tumor model is used to evaluate potential combination effect of merestinib and anti-PD-L1 antibody is the CT26 colorectal cancer model using the mouse colorectal cancer line CT26. This experiment is conducted in immune competent mice (Grosso and Jure-Kunkel, Cancer Immunity Vol. 13, p. 5, January 2013; Duraiswamy et al, Cancer Research, Jun. 15, 2013 73; 3591.). Anti-PD-L1 antibody surrogate (178G7, LSN3370181) (Eppihimer et al. Microcirculation 2002:9(2):133) is used in the mouse study.
Female BALB/c mice (18-20 gm) from Envigo (Harlan Laboratories) are used for this study. Food and water are available ad libitum. Animals are acclimated for one week prior to any experimental manipulation. The study is performed in accordance with AALAC accredited institutional guidelines.
Merestinib is formulated as a solution in 10% PEG 400 in 90% (20% Captisol in water) once weekly. Anti-PD-L1 antibody (178G7, LSN3370181) is formulated in PBS (phosphate buffered saline).
CT26 cells (from internal in vivo pharmacology cell culture group lot CT26.WT.3184878) are used for implantation. Approximately 1×10^6 cells in HBSS are implanted subcutaneously into the right hind flank of the animal under anesthesia.
Study S082015 has four groups: 1) vehicle control (10% PEG 400 in 90% [20% Captisol in water]) dosed orally once daily for 21 days; 2) single agent merestinib at 6 mg/kg once daily orally for 21 days; 3) single agent merestinib at 12 mg/kg once daily orally for 21 days; 4) single agent merestinib at 24 mg/kg once daily orally for 21 days. Dosing of merestinib is initiated at Day 6 post-implant of the CT26 cells. There are 15 animals per group. Five animals per group are taken down on Day 13 and on Day 20 post-implant of CT26 cells for the harvesting of spleens and tumors for the interrogation of the effect of merestinib on immune functions. Five animals per group remain to the end of the study (Day 26). Tumor volumes and body weight are measured bi-weekly. Tumor volume is estimated by using the formula: v=l×w2×0.536 where l=larger of measured diameter and w=smaller of perpendicular diameter. At the end of the study, animals are sacrificed using CO2 and cervical dislocation.
Tumor volume is transformed to the log scale to equalize variance across time and treatment groups. The log volume data are analyzed with a two-way repeated measures analysis of variance by time and treatment using the MIXED procedures in SAS software (Version 9.3). The correlation model for the repeated measures is spatial power. Treated groups are compared to the control group at each time point. The MIXED procedure is also used separately for each treatment group to calculate least squares means and standard errors at each time point. Both analyses account for the autocorrelation within each animal and the loss of data that occurs when animals are removed or lost before Day 33.

For `Cc1ccc(C(=O)Nc2ccc(Oc3cc4cnn(C)c4cc3-c3cn[nH]c3)c(F)c2)c(=O)n1-c1ccc(F)cc1` [merestinib, N-(3-fluoro-4-(1-methyl-6-(1H-pyrazol-4-yl)-1H-indazol-5-yloxy)phenyl)-1-(4-fluorophenyl)-6-methyl-2-oxo-1,2-dihydropyridine-3-carboxamide], which IC50 (CT26 cells) is on record?
The IC50 was over 20 µM.

And the “Body weight change from baseline (%)” value ([1]; 6 mg/kg once daily orally)?
Its value is 5.7%.

And the T/C % ([1]; 6 mg/kg once daily orally)?
The T/C % was 52.8%.

And the “Body weight change from baseline (%)” value ([1]; 12 mg/kg once daily orally)?
Its value is 3.4%.

What about the T/C % ([1]; 12 mg/kg once daily orally) of the same compound?
Its T/C % is 34.8%.

And the “anti-tumor effect” value ([1]; 24 mg/kg dose)?
Its value is “tumor stasis”.

And the “Body weight change from baseline (%)” value ([1]; 24 mg/kg once daily orally)?
The value was 3.0%.

What about the T/C % ([1]; 24 mg/kg once daily orally) of the same compound?
The T/C % was 13.4%.

And the “anti-tumor effect as compared to vehicle control” value ([1]; 6, 12, 24 mg/kg once daily orally)?
Its value is “significant anti-tumor effect”.

What about the tolerability ([1]; all three doses (6, 12, 24 mg/kg), no significant loss in body weight) of the same compound?
The tolerability was “well tolerated”.
